Experimental data as given in ChEMBL document CHEMBL5728354, “1,2-dihydro-3H-pyrazolo[3,4-d]pyrimidin-3-one derivative as Wee1 inhibitor” (2021).

Molecular target: Wee1-like protein kinase (Homo sapiens, UniProt P30291)
Test: In Vitro Enzymatic Inhibitory Activity Assay: Experimental Reagents:Basic reaction buffer: 20 mM hydroxyethylpiperazine ethanesulfuric acid (pH 7.5), 10 mM magnesium chloride, 1 mM EGTA, 0.02% Brij35, 0.02 mg/mL bovine serum albumin, 0.1 mM Na3VO4, 2 mM DTT, 1% DMSOEnzyme: Wee-1 concentration is 150 nMMatrix: MBP concentration is 20 μMCompound Treatment:The tested compound was formulated into a 5 mM solution with 100% DMSO, and a 10 points 3-fold gradient dilution was performed with DMSO through an automated pipetting station epMotion 5070.Experiment Procedure:1. Fresh matrix configuration reaction buffer was prepared;2. The Wee-1 was added into the matrix solution and shaked gently;3. DMSO solution of the compound were added into the kinase reaction mixture using an acoustic technique (Echo 550; nanoliter range) and incubated for 20 minutes at room temperature;4. 33P-ATP (specific activity, 10 μCi/μL) was added into the reaction mixture to stimulate the reaction;5. Incubated for 2 hours at room temperature;6. Kinase activity was detected by filter-binding method.

Sequence of Wee1-like protein kinase (P30291 whole entry): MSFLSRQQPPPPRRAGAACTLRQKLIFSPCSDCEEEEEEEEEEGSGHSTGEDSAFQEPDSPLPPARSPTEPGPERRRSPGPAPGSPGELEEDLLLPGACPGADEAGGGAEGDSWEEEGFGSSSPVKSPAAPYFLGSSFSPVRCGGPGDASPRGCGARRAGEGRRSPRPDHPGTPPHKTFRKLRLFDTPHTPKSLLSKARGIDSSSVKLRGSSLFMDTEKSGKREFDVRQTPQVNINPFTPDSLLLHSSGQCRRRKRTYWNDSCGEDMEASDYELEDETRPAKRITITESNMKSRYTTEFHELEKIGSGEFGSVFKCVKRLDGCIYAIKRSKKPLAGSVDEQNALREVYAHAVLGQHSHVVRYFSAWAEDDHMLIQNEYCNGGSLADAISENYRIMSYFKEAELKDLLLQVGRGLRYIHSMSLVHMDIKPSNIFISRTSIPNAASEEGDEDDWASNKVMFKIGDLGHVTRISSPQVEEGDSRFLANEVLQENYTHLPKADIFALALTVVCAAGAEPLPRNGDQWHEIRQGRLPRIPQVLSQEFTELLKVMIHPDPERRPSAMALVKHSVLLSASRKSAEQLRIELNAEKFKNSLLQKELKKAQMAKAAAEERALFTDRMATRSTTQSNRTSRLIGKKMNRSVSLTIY

IC50 [nM]	Compound
620	C=CCn1c2nc(Nc3ccc(N4CCC5(CCN(C)CC5)CC4)cc3)ncc2c(=O)n1-c1ccccc1Cl
64.6	C=CCn1c(=O)c2cnc(Nc3ccc(N4CCC5(CCN(C)CC5)CC4)cn3)nc2n1-c1cccc(C(C)(C)O)n1
90.4	C=CCn1c(=O)c2cnc(Nc3ccc(N4CCC5(CCN(C)CC5)CC4)cc3)nc2n1-c1cnccn1
